This is an account of results in patent publication US7671211B1, “Substrates for thioredoxin reductase” (priority 1999, dated 2010).

Usually Km stands for the substrate concentration at which the rate is half of its maximum.

Where two headings read alike, the source gives them in different places. Some results are limits rather than exact numbers.

For series [1], the target named is T1, human thioredoxin reductase (Homo sapiens, UniProt Q16881).
T1 construct: Thioredoxin reductase (TrxR) from human placenta were purified to homogeneity; from tissue; host or cells: human placenta
T1 sequence (Q16881 1-499 isoform Q16881-5): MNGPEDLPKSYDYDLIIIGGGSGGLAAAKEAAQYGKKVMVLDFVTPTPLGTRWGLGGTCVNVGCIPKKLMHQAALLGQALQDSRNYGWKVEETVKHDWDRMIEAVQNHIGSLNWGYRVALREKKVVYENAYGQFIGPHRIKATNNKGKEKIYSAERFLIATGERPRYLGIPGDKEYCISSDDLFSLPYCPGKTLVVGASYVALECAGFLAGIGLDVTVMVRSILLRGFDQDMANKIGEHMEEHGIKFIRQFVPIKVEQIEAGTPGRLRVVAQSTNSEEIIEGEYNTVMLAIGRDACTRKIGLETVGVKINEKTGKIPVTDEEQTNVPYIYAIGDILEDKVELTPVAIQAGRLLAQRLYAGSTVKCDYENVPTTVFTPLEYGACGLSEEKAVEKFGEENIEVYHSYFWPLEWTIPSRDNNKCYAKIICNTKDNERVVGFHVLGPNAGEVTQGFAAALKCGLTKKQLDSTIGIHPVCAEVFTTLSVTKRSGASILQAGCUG
Kind of series: Reduction of Compound A by human thioredoxin reductase (NADPH oxidation at 340 nm, selenol detection with DTNB). It is filed as biochemical. The method, then:
(§1) Measurements of thioredoxin reductase activity were performed in TF buffer (50 mM Tris-Cl, 1 mM EDTA, pH 7.5) with 100 μM NADPH and a given amount of Compound A. Reactions were carried out with addition of 5 or 10 μl of stock solution of thioredoxin reductase in a final volume of 0.55 ml. Cuvettes used as reference contained the same amount of DMSO as in the samples and also thioredoxin reductase. Absorbance of the control cuvette was automatically subtracted by the spectrophotometer. The reactions were followed at 340 nm.
Compound A absorbs at 340 nm with a 4,000 M^−1cm^−1 molar extinction coefficient, and N-phenyl-2-carboxamidobenzene selenol, the reduction product of selenol by a dithiol, has half the absorption (2000 M^−1cm^−1) at 340 nm. The formation of the compound A-selenol was confirmed by measuring absorption spectra in the presence or absence of excess DTT. In calculations of the formation of compound A-selenol, a molar extinction coefficient of 8,200 M^−1cm^−1 was used since oxidation of NADPH to NADP^+ yields 6,200 M^−1cm^−1.
Compound A 50 μM (●) or 100 μM (□) was dissolved in 0.55 ml of a solution containing 50 mM Tris-Cl, 1 mM EDTA (pH 7.5) and 100 μM NADPH, and mixed with 40 nM human thioredoxin reductase. Absorbance at 340 nm was measured and corrected against the blank value (with the same amounts of enzyme, but without compound A). The same experiments using 50 μm (●) and 100 μM (Δ) Compound A mixed with 17 nM enzyme were performed.
The reaction was fast since with 50 μM Compound A the reaction was complete after 1 min. […] When 6 M guanidine hydrochloride containing DTNB was added to the cuvette at 7 min, an absorbance at 412 nm of 0.400 was measured indicating formation of selenol groups. Compound A itself gave no reaction with DTNB. The reaction with 100 μM compound A was seemingly slower from the decrease in absorbance at 340 nm using 40 nM enzyme.

The target in series [2] is T2, calf thymus thioredoxin reductase (Bos taurus, UniProt O62768).
T2 construct: Thioredoxin reductase (TrxR) from calf thymus or human placenta were purified to homogeneity; from tissue; host or cells: calf thymus
T2 sequence (O62768 1-499): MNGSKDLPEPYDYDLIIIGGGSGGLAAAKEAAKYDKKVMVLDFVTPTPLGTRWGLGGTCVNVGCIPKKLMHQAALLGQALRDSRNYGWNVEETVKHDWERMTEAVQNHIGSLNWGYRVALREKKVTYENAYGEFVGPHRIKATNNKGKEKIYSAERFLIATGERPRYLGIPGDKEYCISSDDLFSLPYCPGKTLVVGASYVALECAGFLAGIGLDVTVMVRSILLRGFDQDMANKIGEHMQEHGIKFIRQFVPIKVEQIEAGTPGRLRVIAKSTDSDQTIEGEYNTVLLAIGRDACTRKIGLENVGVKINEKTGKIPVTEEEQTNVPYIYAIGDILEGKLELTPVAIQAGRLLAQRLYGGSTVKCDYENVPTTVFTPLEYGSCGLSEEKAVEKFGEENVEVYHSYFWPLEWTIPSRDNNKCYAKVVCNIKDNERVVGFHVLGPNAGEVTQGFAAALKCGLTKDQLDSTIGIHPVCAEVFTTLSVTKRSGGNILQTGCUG
Kind of series: Trx-catalyzed insulin disulfide reduction assay. The series is classed as biochemical. To be noted: for SH-group: 5 μM human Trx, 10 nM calf thymus thioredoxin reductase, 3 min, 20° C.; for Activity: relative to 0 μM = 100. On the procedure: (§2) The activity of thioredoxin reductase was determined in the insulin assay. A mixture of 100 mM potassium phosphate (pH 7.0), 2 mM NADPH, and 0.16 mM insulin was added with Compound A and thioredoxin, and then with thioredoxin reductase in a total volume of 0.55 ml for the reaction. The progress of reduction of insulin disulfides was followed at 340 nm. Generated sulfhydryl or selenol groups were measured at 412 nm by addition of 0.50 ml of a mixture of 6 M guanidine-HCl, 0.20 M Tris-Cl (pH 8.0), 1 mM DTNB and calculated using a molar extinction coefficient of 13,600 M^−1cm^−1. DTNB reducing activity of thioredoxin reductase by using NADPH was measured at 412 nm in 100 mM potassium phosphate (pH 7.0) containing 10 mM EDTA, 0.2 mM NADPH, 5 mM DTNB and 0.1 mg per ml of bovine serum albumin.
(§3) To test whether or not Compound A inhibited thioredoxin reductase, enzyme assays were performed.
(§4) Then 0.5 ml of a mixture containing 6 M guranidine HCl, 0.20 M Tris-HCl (pH 8.0) and 1 mM DTNB was added to stop the reaction and the absorbance at 412 nm was used to calculate the amount of SH-groups generated in insulin. In (B), 10 nM calf thymus thioredoxin reductase was preincubated with or without 50 μM compound A and 100 μM NADPH for 1 h. Then 10 μl of the resulting solution was added to 500 μl of a mixture of 0.1 M Tris-HCl (pH 8.0), 1 mM EDTA and 5 mM DTNB to determine activity at 412 nm. Activity is expressed as the amount of SH-groups generated (μM) after 3 min.

Series [3] deals with T2, calf thymus thioredoxin reductase. The series can be described thus: Reduction of DTNB by thioredoxin reductase. The series is classed as biochemical. The method, then:
as §2, §3, §4

The target of the next series is E.coli Trx-(SH)2 (Escherichia coli, UniProt P0AA25). The series can be described thus: Oxidation of E.coli Trx-(SH)2 by compound A determined by fluorescence spectroscopy. The series is classed as biochemical. The following applies: 0.1 μM Trx-(SH)2 mixed with 0.1 μM compound A, pH 7.5, 22° C. The method, then:
Protein fluorescence was measured with a thermostated SPEX-Fluoro Max instrument. Trx-(SH)2 was prepared from E.coli Trx-S2 640 μM which was incubated at room temperature for 20 min with 10 mM DTT. DTT was subsequently removed by gel chromatography (on a NAP-5 column (Pharmacia) using N2 equilibrated buffer). Trx-(SH)2 was mixed with Compound A dissolved in a total volume of 3 ml of a mixture (pH 7.5) of 0.1 M potassium phosphate and 1 mM EDTA, and fluorescence was immediately measured in the spectrofluorimeter at 22° C. Excitation of fluorescence was at 290 nm and emission spectra from 300 to 500 nm were recorded. Fluorescence at 340 nm was used to follow the oxidation of Trx-(SH)2 to record the rate of the reaction.
Mammalian and E.coli Trx have the same active site GPC and reactivity with disulfides. […] N2 equilibrated 0.1 M potassium phosphate was added with 0.1 μM (1.2 μg/ml) of E.coli Trx-(SH)2 and then with 1 mM EDTA (pH 7.5) to prepare a sample. Fluorescence of the sample was excited at 290 nm. The […] at the wavelength range from 300 to 500 nm was recorded. Then 0.1 μM of compound A was added and a spectrum was recorded. […] This is the fastest reaction for oxidation of reduced thioedoxin by a low molecular weight compound.

Series [4] addresses T1, human thioredoxin reductase. Kind of series: Reduction of hydrogen peroxide by human thioredoxin reductase (hydrogen peroxide reductase activity). To be noted: for effect on reaction rate of hydrogen peroxide reduction: 4.5 μM Trx; for turnover of enzyme (hydrogen peroxide reduction) / fold increase of hydrogen peroxide reductase activity: 0.5 mM hydrogen peroxide, 17 nM human TrxR; for fold increase of hydrogen peroxide reductase activity: versus enzyme alone. It is filed as biochemical. The method, then: as §1
[…] The absorbance at 340 nm was determined against a blank with 17 nM thioredoxin reductase but without hydrogen peroxide. As a result, with 0.50 mM hydroperoxide a turnover number of 30×min^−1 was calculated. Addition of 2 μM compound A stimulated the activity with the enzyme which increased its activity to a turnover of 450×min^−1 or 15-fold. […] Thus, Compound A acts to dramatically increase the hydrogen peroxide reductase activity of thioredoxin reductase and also acts as a thioredoxin peroxidase mimic.
Addition of 4.5 μM thioredoxin to 17 nM thioredoxin reductase stimulated the reduction of hydrogen peroxide. […] The same conditions as in FIG. 5 were applied with only 17 nM thioredoxin reductase (●) and addition of 4.5 μM Trx (Δ). Then […] was added to adjust the final compound A concentration to […].
Thus compound A increased activity of the enzyme with lower more physiologically relevant concentrations, and this increase was about 25-fold. […] Activity is expressed as the variation ratio per min, ΔA340/min. […]

For series [5] the target is unchanged. The series is described as above. To be noted: hydrogen peroxide 2 mM, TrxR 17 nM, human Trx 5 μM. The series is classed as biochemical.
Series [6] has the same target. To be noted: human Trx-S2, comparison value, cited from earlier work.
[7] abbreviates: 2 μM compound A plus 4.5 μM human Trx.

Sequence of E.coli Trx-(SH)2 (P0AA25 whole entry): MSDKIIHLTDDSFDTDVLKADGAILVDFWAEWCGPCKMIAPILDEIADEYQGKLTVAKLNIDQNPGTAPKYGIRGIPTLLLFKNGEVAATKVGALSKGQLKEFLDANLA

Regarding `O=c1c2ccccc2[se]n1-c1ccccc1` [Compound A, 2-phenyl-1,2-benzisoselenazol-3(2H)-one], in series [1] (15 nM enzyme, 5, 10 and 20 μM compound A), the Kcal stood at 1000 ± 300 min⁻¹. Further, the Km in series [1] (15 nM enzyme, 5, 10 and 20 μM compound A, read-out: Km-value as substrate for thioredoxin reductase) is less than 5 µM. Moreover, the “time until reaction complete” value in series [1] (50 μM Compound A, 40 nM human thioredoxin reductase, 100 μM NADPH) is 1 min. In series [1] (6 M guanidine hydrochloride containing DTNB added at 7 min, 50 μM Compound A, 40 nM enzyme), the “absorbance at 412 nm after DTNB addition (formation of selenol groups)” value was 0.400. Besides, the “effect in insulin disulfide reduction assay using thioredoxin and thioredoxin reductase” value in series [2] is “only a small effect”. Also, the SH-group in series [2] (5 μM Compound A) worked out at 70.6 µM; in series [2] (10 μM Compound A) it was 68.4 µM; in series [3] (50 μM Compound A preincubated with 10 nM enzyme and 100 μM NADPH for 1 h, after 3 min), 7.5 µM. In addition, the Activity in series [2] (5 μM Compound A) amounted to 89%; in series [2] (10 μM Compound A), 88%; in series [3] (50 μM Compound A, preincubation 1 h, relative to 0 μM = 100) it was 103%. In addition, in series [3] (50 μM Compound A and 10 nM enzyme), the “inhibition of thioredoxin reductase with DTNB as substrate” value is listed as “No inhibition”. Moreover, in series [3] (preincubation in the presence or absence of NADPH), the “inhibition of the enzyme after preincubation with compound A” value was “did not inhibit”. In addition, the “oxidation rate of Trx-(SH)2” value at E.coli Trx-(SH)2 was greater than 2e+07 M⁻¹ s⁻¹. In addition, the “effect on reaction rate of hydrogen peroxide reduction” value in series [4] (0.5 μM compound A, 17 nM thioredoxin reductase) is “increased the reaction rate”; in series [4] (5.5 μM compound A, 17 nM thioredoxin reductase), “stimulated strongly”. Moreover, the “fold increase of enzyme activity at low hydrogen peroxide concentration” value in series [4] (100 μM hydrogen peroxide, 17 nM thioredoxin reductase, 2 μM Compound A) is recorded as “about 25 fold”. The entries for the “turnover of enzyme (hydrogen peroxide reduction)” value in series [4] (2 μM compound A) and in series [4] (setting [7]) were 450 min⁻¹ and 900 min⁻¹, respectively. Also, the “fold increase of hydrogen peroxide reductase activity” value in series [4] (setting [7]) came to 30 fold; in series [4] (2 μM compound A), 15 fold. Besides, in series [5], the “turnover of Compound A” value came to 23 min⁻¹. For the same molecule, in series [5] (compound A), the enzyme turnover is 1328 min⁻¹. Moreover, the NADPH oxidation rate in series [5] (same rate with 1, 2 and 5 μM compound A) was found to be 23 µM/min.

B1: human Trx-S2: oxidized human thioredoxin, protein substrate of thioredoxin reductase, used for comparison of Km and Kcal (protein, UniProt P10599 2-105, looked up)
Thioredoxin: VKQIESKTAFQEALDAAGDKLVVVDFSATWCGPCKMIKPFFHSLSEKYSNVIFLEVDVDDCQDVASECEVKCMPTFQFFKKGQKVGEFSGANKEKLEATINELV
modifications: oxidized
notes: oxidized human thioredoxin, protein substrate of thioredoxin reductase, used for comparison of Km and Kcal
B1: the Kcal in series [6] was 3000 min⁻¹. Further, the Km in series [6] (read-out: Km-value as substrate for thioredoxin reductase) was 2.5 µM.
